Experimental data from US12071596B2, “Metal working fluids biocide” (Dow Global Technologies LLC, priority 2021, dated 2024).

Tested on: mixed microbial inoculum
Assay: Microbial growth inhibition test (challenge test) in diluted metalworking fluid
Type: cell-based
Details: 0.91 wt. % amine in diluted metalworking fluid, 30° C.; for Challenge Test Results 2nd dose Day 14: 2nd dosing 0.5 ml mixed inoculum, read at Day 14; for Challenge Test Results 3rd dose Day 21: 3rd dosing 1 ml mixed inoculum, read at Day 21; for Challenge Test Results 4th dose Day 28: 4th dosing 1 ml mixed inoculum, read at Day 28; for Challenge Test Results 5th dose Day 35: 5th dosing 3 ml mixed inoculum, read at Day 35; for Challenge Test Results 1st dose Day 7: 50 g sample, 1st dosing 0.5 ml mixed inoculum, read at Day 7
Description: Test 1—Microbial Growth Inhibition Test
To test the novel disclosed microbial growth control agent the diluted metal working fluid shown in Table 1 is mixed with the various ether amines listed in Table 2. Firstly, using 250 mL glass beaker to prepare 100 g the basic diluted metalworking fluid with the recipe in Table 1 except amine ingredient, stirring for getting clear solution. Repeating the first step to get 8 basic diluted metalworking fluid solutions. Secondly, adding every kind of amine or amine combination from Table 2 as comparative example 1-2 and example 1-6. Thirdly, 50 g the comparative example 1-2 and example 1-6 into 8 petri dishes with a diameter of 10 cm and dosed with 0.5 ml of mixed microbial inoculum. Measuring the microbial growth in the petri dishes after 7 days and repeating to dose the mixed microbial inoculum and measuring them in 5 times. For the first and second dosing, 0.5 ml mixed inoculum is used; in third and fourth dosing, 1 ml mixed inoculum is used; and in the fifth dosing, 3 ml mixed inoculum is used The MWF microbial inoculum was prepared by adding 0.1 mL of each bacterial overnight broth culture and 1.0 mL of each yeast broth culture to the 10 mL of mold suspension and blending. The microbial strains used in this experiment are listed in Table 3 below (8 bacteria, 2 molds and 2 fungi). These strains were cultivated separately in nutrient broth and then blend them together. The mixed strains were then injected into each tested MWF and amine sample and mixed well.
50 grams of each of the MWF treated with amine samples (e.g., Examples 1-5 and Comparative Examples 1-2) were dosed with 0.5 ml of mixed microbial inoculum on Day 0 of this experiment. This inoculation introduces around […] colony forming units per milliliter of sample, (CFU/ml) of microorganisms.
The mixed inoculated samples where then incubated at 30° C. to determine the biocidal effect of the tested amines on the microbes. After seven days, the number of microorganisms surviving in the petri dish was observed and if the colony growth was less than 10, it was considered as PASS. After measuring the number of surviving microorganisms, another round of dosing with the mixed microbial inoculum was complete. The step of observation and subsequent dosing was done 5 times to challenge the microbial growth inhibition capabilities of the tested examples. For the first and second dosing, 0.5 ml mixed inoculum was used; in third and fourth dosing, 1 ml mixed inoculum was used; and in the fifth dosing, 3 ml mixed inoculum is used.

With COCC(C)N (centres unmarked) [Example 1, 1-methoxy-2-propanamine] the “Challenge Test Results 2nd dose Day 14” value was “Pass (if the colony growth was less than 10, it was considered as PASS)”, the “Challenge Test Results 3rd dose Day 21” value was “Pass (if the colony growth was less than 10, it was considered as PASS)” and the “Challenge Test Results 4th dose Day 28” value was “Pass (if the colony growth was less than 10, it was considered as PASS)”. For the same compound, the “Challenge Test Results 5th dose Day 35” value was “Pass (if the colony growth was less than 10, it was considered as PASS)” and the “Challenge Test Results 1st dose Day 7” value was “Pass (if the colony growth was less than 10, it was considered as PASS)”.
For CCCCOCCN [Example 3, 2-butoxy-ethanamine], the “Challenge Test Results 2nd dose Day 14” value was “Pass (if the colony growth was less than 10, it was considered as PASS)”, the “Challenge Test Results 3rd dose Day 21” value was “Pass (if the colony growth was less than 10, it was considered as PASS)” and the “Challenge Test Results 4th dose Day 28” value was “Pass (if the colony growth was less than 10, it was considered as PASS)”. For the same compound, the “Challenge Test Results 5th dose Day 35” value was “Pass (if the colony growth was less than 10, it was considered as PASS)” and the “Challenge Test Results 1st dose Day 7” value was “Pass (if the colony growth was less than 10, it was considered as PASS)”.
For CC(C)(N)CO [compound 2, 2-amino-2-methyl-1-propanol, reference compound], the “Challenge Test Results 2nd dose Day 14” value was “Pass (if the colony growth was less than 10, it was considered as PASS)”, the “Challenge Test Results 3rd dose Day 21” value was “Pass (if the colony growth was less than 10, it was considered as PASS)” and the “Challenge Test Results 4th dose Day 28” value was “Pass (if the colony growth was less than 10, it was considered as PASS)”. The “Challenge Test Results 5th dose Day 35” value was “Pass (if the colony growth was less than 10, it was considered as PASS)” and the “Challenge Test Results 1st dose Day 7” value was “Pass (if the colony growth was less than 10, it was considered as PASS)”.
CCCCOCC(C)N (centres unmarked) [Example 2, 1-butoxy-2-propanamine] was tested, and the “Challenge Test Results 2nd dose Day 14” value was “Pass (if the colony growth was less than 10, it was considered as PASS)”, the “Challenge Test Results 3rd dose Day 21” value was “Pass (if the colony growth was less than 10, it was considered as PASS)” and the “Challenge Test Results 4th dose Day 28” value was “Pass (if the colony growth was less than 10, it was considered as PASS)”. For the same compound, the “Challenge Test Results 5th dose Day 35” value was “Pass (if the colony growth was less than 10, it was considered as PASS)” and the “Challenge Test Results 1st dose Day 7” value was “Pass (if the colony growth was less than 10, it was considered as PASS)”.
In the case of CCCOCC(C)OCC(C)N (centres unmarked) [Example 6, 1-(1-methyl-2-propoxyethoxy)-2-propanamine], the “Challenge Test Results 2nd dose Day 14” value is reported as “Pass (if the colony growth was less than 10, it was considered as PASS)”, the “Challenge Test Results 3rd dose Day 21” value is reported as “Pass (if the colony growth was less than 10, it was considered as PASS)” and the “Challenge Test Results 4th dose Day 28” value is reported as “Pass (if the colony growth was less than 10, it was considered as PASS)”. For the same compound, the “Challenge Test Results 5th dose Day 35” value was “Pass (if the colony growth was less than 10, it was considered as PASS)” and the “Challenge Test Results 1st dose Day 7” value was “Pass (if the colony growth was less than 10, it was considered as PASS)”.
In the case of CCCOCC(C)OCC(C)OCC(C)N (centres unmarked) [Example 4, 1-[1-methyl-2-(1-methyl-2-propoxyethoxy)ethoxy]-2-propanamine], the “Challenge Test Results 2nd dose Day 14” value is reported as “Pass (if the colony growth was less than 10, it was considered as PASS)”, the “Challenge Test Results 3rd dose Day 21” value is reported as “Pass (if the colony growth was less than 10, it was considered as PASS)” and the “Challenge Test Results 4th dose Day 28” value is reported as “Pass (if the colony growth was less than 10, it was considered as PASS)”. For the same compound, the “Challenge Test Results 5th dose Day 35” value was “Pass (if the colony growth was less than 10, it was considered as PASS)” and the “Challenge Test Results 1st dose Day 7” value was “Pass (if the colony growth was less than 10, it was considered as PASS)”.
In the case of CCCCOCC(C)OCC(C)N (centres unmarked) [Example 5, 2-propanamine, 1-(2-butoxy-1-methylethoxy)-], the “Challenge Test Results 2nd dose Day 14” value is reported as “Pass (if the colony growth was less than 10, it was considered as PASS)”, the “Challenge Test Results 3rd dose Day 21” value is reported as “Pass (if the colony growth was less than 10, it was considered as PASS)” and the “Challenge Test Results 4th dose Day 28” value is reported as “Pass (if the colony growth was less than 10, it was considered as PASS)”. The “Challenge Test Results 5th dose Day 35” value was “Pass (if the colony growth was less than 10, it was considered as PASS)” and the “Challenge Test Results 1st dose Day 7” value was “Pass (if the colony growth was less than 10, it was considered as PASS)”.
